Results as given in patent US20070225171A1 (priority 2001, published 2007).

Legend:
[1] = tested on: tobacco dark fired cultivar KY 160 (non-GE control); assay: Yield assay, 2,4-D sprayed on non-transgenic tobacco; assay type: in vivo, Nicotiana tabacum; settings: isooctyl ester formulation; for Plant Yield / Corrected Leaf Yield / Corrected Plant Yield / Leaf Yield: dry matter 21 days after spraying; for Percent Leaf Yield: 21 days after spraying
Description: (§1) The use of exogenously supplied synthetic auxins on agronomic crops to elicit direct non-herbicidal effects, with an emphasis on the potential enhancement of yield, was assessed using genetically-engineered (GE) tobacco plant lines expressing synthetic auxin metabolizing genes. Non-GE controls were used, permitting separation of the herbicidal and biological properties of the exogenously supplied synthetic auxins. Tobacco was utilized to model dry matter yield.
(§2) The research was conducted in a single phase entailing characterization of response variables when plants were subjected to maximum (1× rate=1 pound/acre of active ingredient) and low (¼×=4 ounces/acre of active ingredient) rates of exogenously applied 2,4-dichlorophenoxyacetic acid (2,4-D). GE lines of tobacco (dark fired cultivar “KY 160”) expressing a synthetic gene for auxin metabolism (SAD1 or SAD2) were used, along with non-GE lines of the same genotype as control material. Commercial tobacco production has long utilized decapitation (“topping”) to initiate a predictable increase in leaf weight, thickness, and dry matter yield. This yield increase is dependent upon variables, such as genotype and fertility. By utilizing controls of the same genotype and a fixed level of fertility, significant yield variation responses should be attributable to the treatment (exogenous auxin herbicide application).
(§3) The overall experimental design was comprised of three parallel completely randomized designs with spray rate and genotype as the main factors. Three replications were performed for each treatment within each experiment. Each replication was the average measurement of six plants. The tobacco lines were allowed to advance to the 6-8 leaf stage. Upon reaching this stage, the primary meristem was removed along with lower leaves so that only 4 leaves remained. Plants were then sprayed with herbicide and permitted to grow for an additional 21 days. At the end of this period, dry matter yields for both leaf and the whole plant were measured.
(§4) Yield data recorded for tobacco were leaf dry matter, leaf number, and total dry matter. Corrected plant yield and corrected leaf yield were calculated for each replication as the leaf dry matter divided by leaf number then multiplied by the expected number of leaves (6 plants×4 leaves=24). This corrected leaf yield was then added to stem yield fraction (arrived at by subtracting actual leaf yield from total plant yield) to create a corrected total plant yield. All tobacco yield measurements were recorded in grams after a 7-day drying period in ambient air dryers.
(§5) Seed of non-transgenic tobacco lines were germinated on MS03 (MS salts, B5 vitamins, 3% sucrose) medium. Transgenic seeds were germinated on the same medium augmented with 300 mg/L kanamycin monosulfate to allow detection of any seedlings failing to carry the transgene. Thirty days after germination, seedlings were transplanted to the greenhouse into flats holding 8 trays of 6 plants each for a total of 48 plants. Plants were permitted to grow for approximately 45 days, at which time 6-8 leaves had developed. Prior to spraying, the top of the plant retaining the uppermost two leaves was removed (decapitated) resulting in the retention of 4 fully-extended leaves for each plant.
(§6) For spray assays and for the yield studies, spraying was performed in an Allen Machine Works Spray Cabinet. Spray rates were established as the equivalent of 16 ounces of active ingredient per acre (1× rate), 4 ounces active ingredient/acre (¼× rate), and the control (no active ingredient per acre or 0×). The herbicide used was 2,4-D, isooctyl ester formulation (3.9 pounds of active ingredient/gallon) at equivalent rates noted above. To achieve this equivalent 1× field rate, 500 microliters of herbicide were diluted into a total volume of 50 ml. The ¼× field rate was achieved by diluting 125 microliters of herbicide in a 50 ml volume. […]

[2] = tested on: SAD1 - Cultivar KY 160 genetically engineered to express a synthetic gene for tolerance to phenoxy herbicides; assay: Yield assay, 2,4-D sprayed on transgenic SAD1 tobacco; assay type: in vivo, Nicotiana tabacum; settings: for Plant Yield / Percent Leaf Yield / Corrected Leaf Yield / Corrected Plant Yield / Leaf Yield: SAD1 tobacco, isooctyl ester formulation; for Plant Yield / Corrected Leaf Yield / Corrected Plant Yield / Leaf Yield: dry matter 21 days after spraying; for Percent Leaf Yield: 21 days after spraying
Description: as §1, §2, §3, §4, §5, §6

[3] = tested on: SAD2 - Cultivar UC82B genetically engineered to express a synthetic gene for tolerance to phenoxy herbicides; assay: Fruit yield assay, 2,4-D sprayed on transgenic SAD2 tomato; assay type: in vivo, Lycopersicon esculentum; settings: for Total Yield (Fresh Fruit Yield) / Fruit Weight (Average Fresh Fruit Weight) / Total Flowers / Fruit per Plant / Total Fruit No.: SAD2 tomato; for Total Yield (Fresh Fruit Yield): harvested over 60 days; for Fruit Weight (Average Fresh Fruit Weight) / Total Flowers / Fruit per Plant / Total Fruit No.: 60 days; for Total Flowers: Flower Number/plant/replication/treatment; for Fruit per Plant: Fruit Number/plant/replication/treatment; for Total Fruit No.: Total Fruit Number/replication/treatment
Description: The use of exogenously supplied synthetic auxins on agronomic crops to elicit direct non-herbicidal effects was further assessed using genetically-engineered tomato plant lines expressing a synthetic auxin metabolizing gene, and non-genetically-engineered controls. Tomato was utilized to model fruit retention (fruit set) and fruit yield. The transgenic tomato line was utilized in the T2 generation with the transgene fixed in a homozygous fashion. The tomato genotype UC82L was utilized as the control, as well as the background for tranformation with the pPZP211-PNPT-311-SAD2 binary plasmid. This genotype was chosen because it is more likely to closely approximate the behavior of field-grown tomatoes than some short-life-cycle laboratory strains of tomato.
In the same manner as for tobacco, the research was conducted in a single phase entailing characterization of response variables when plants were subjected to the maximum (1× rate=1 pound/acre of active ingredient) and low (¼×=4 ounces/acre of active ingredient) rates of exogenously applied 2,4-D. The overall experimental design was comprised of three parallel completely randomized designs with spray rate and genotype as the main factors. Three replications were performed for each treatment within each experiment. Each replication was the average of three plants that were harvested over a period of 60 days. Fruit number, fruit weight and flower number were measured directly, with average fruit weight and average fruit per plant being derived by dividing fruit weight and fruit number within a replication by the number of plants (3). Tomato fruit yield was measured on fresh fruit and recorded in grams.
The binary plasmid pPZP211-PNPT-311-SAD2 used for transformation was the same as that used in Example 1, and tomato (Lycopersicon esculentum) cultivar UC82B (a cultivar nearly identical to UC82L) was transformed by Agrobacterium-mediated transformation of leaf tissue with the binary plasmid as described in Example 1. Transgenic plants were produced from the transformed leaf tissue as described in Example 1.
Non-transgenic and transgenic seed were germinated and grown as described in Example 1 for tobacco. The transgenic tomato line was utilized in the T2 generation with the transgene fixed in a homozygous fashion.
The plants with 4 fully-extended leaves retained were sprayed as described in Example 1. Each replication (3 plants) was sprayed independently and permitted to dry before being moved back to the greenhouse for further growth for 60 days.
Fruit number, fruit weight, and flower number were measured directly during this 60-day period. Tomato fruit yield was measured on fresh fruit and recorded in grams.

[4] = 2,4-D rate 1X (1 pound active ingredient/acre)
[5] = 2,4-D rate ¼X (4 ounces active ingredient/acre)

## O=C(O)COc1ccc(Cl)cc1Cl [2,4-D, 2,4-dichlorophenoxyacetic acid]
[1]; [4]
  Plant Yield: 27.7 grams/plant/replication/treatment
[1]; 2,4-D rate 1X
  Percent Leaf Yield: 33.2%
  Corrected Leaf Yield: 9.4 grams/plant/replication/treatment
  Corrected Plant Yield: 28.2 grams/plant/replication/treatment
  Leaf Yield: 9.0 grams/plant/replication/treatment
[1]; [5]
  Plant Yield: 33.1 grams/plant/replication/treatment
[1]; 2,4-D rate ¼X
  Percent Leaf Yield: 35.2%
  Corrected Leaf Yield: 12.2 grams/plant/replication/treatment
  Corrected Plant Yield: 34.3 grams/plant/replication/treatment
  Leaf Yield: 11.0 grams/plant/replication/treatment
[2]; [4]
  Plant Yield: 42.5 grams/plant/replication/treatment
[2]; 2,4-D rate 1X
  Percent Leaf Yield: 44.7%
  Corrected Leaf Yield: 19.1 grams/plant/replication/treatment
  Corrected Plant Yield: 42.7 grams/plant/replication/treatment
  Leaf Yield: 18.8 grams/plant/replication/treatment
[2]; [5]
  Plant Yield: 43.5 grams/plant/replication/treatment
[2]; 2,4-D rate ¼X
  Percent Leaf Yield: 40.5%
  Corrected Leaf Yield: 17.8 grams/plant/replication/treatment
  Corrected Plant Yield: 43.9 grams/plant/replication/treatment
  Leaf Yield: 17.4 grams/plant/replication/treatment
[2]; transgenic material (SAD1) sprayed with either the ¼× or 1× rate
  effect on yield: significant increase in yield
[3]; spray rate 1X (1 pound active ingredient/acre), 2,4-D isooctyl ester formulation
  Total Yield (Fresh Fruit Yield): 131.9 grams/plant/replication/treatmen
[3]; spray rate 1X
  Fruit Weight (Average Fresh Fruit Weight): 13.7 grams/fruit/plant/replication/treatment
  Total Flowers: 19.7
  Fruit per Plant: 2.4
  Total Fruit No.: 9.7
[3]; spray rate ¼X (4 ounces active ingredient/acre), 2,4-D isooctyl ester formulation
  Total Yield (Fresh Fruit Yield): 122.9 grams/plant/replication/treatmen
[3]; spray rate ¼X
  Fruit Weight (Average Fresh Fruit Weight): 14.4 grams/fruit/plant/replication/treatment
  Total Flowers: 17.3
  Fruit per Plant: 2.2
  Total Fruit No.: 8.7
[3]; transgenic line, ¼× rate
  effect on average fruit weight: increase in average fruit weight
[3]; transgenic lines, ¼× rate
  effect on total flower number: increasing the number of flowers
